Where two headings read alike, the source gives them in different places.
Columns and labels:
[1] = molecular target: T1, CIB1 and αIIb interaction (CIB1-GST : F-αIIb peptide) (Homo sapiens, UniProt Q99828); test: FP assay, 1536-well qHTS format (primary and confirmatory screen); type: binding; conditions: for Curve Class (confirmatory screen) / CONFIRMATORY SCREEN Curve Class: qHTS curve class
T1 construct: made in house; host or cells: BL-21 plus RIL cells (E. coli)
T1 sequence (Q99828 1-191): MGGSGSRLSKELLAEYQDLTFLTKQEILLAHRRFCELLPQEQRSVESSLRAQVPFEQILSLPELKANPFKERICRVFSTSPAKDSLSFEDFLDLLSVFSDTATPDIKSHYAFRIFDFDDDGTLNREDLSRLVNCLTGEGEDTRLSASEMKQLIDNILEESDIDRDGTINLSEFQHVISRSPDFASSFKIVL

[2] = molecular target: T2, GST-CIB1 : F-scrambled peptide (Homo sapiens, UniProt Q99828); test: FP scrambled-peptide counter screen, 1536-well format; type: binding; conditions: for Curve Class (counterscreen) / COUNTERSCREEN Curve Class: qHTS curve class; for IC50: read-out: IC50 [μM] (counterscreen)
T2 construct: made in house; host or cells: BL-21 plus RIL cells (E. coli)
T2 sequence (Q99828 1-191): T1 sequence (Q99828 1-191)

[3] = confirmatory screen, negative sign = inhibitory curve
[4] = confirmatory screen, read-out: IC50 [μM] (confirmatory screen)
[5] = qHTS FP screen hits, Table S2, negative = inhibition
[6] = qHTS FP screen hits, Table S2, read-out: IC50
[7] = counterscreen, negative sign = inhibitory curve
[8] = Table S3, confirmatory screen, a negative sign marks inhibitory curves
[9] = Table S3, confirmatory screen, negative = inhibition
[10] = qHTS primary screen hits, Table S2, negative = inhibition
[11] = qHTS primary screen hits, Table S2, negative sign = inhibitory curve
[12] = qHTS primary screen hits, Table S2, read-out: IC50
[13] = Table S3, counterscreen, a negative sign marks inhibitory curves
[14] = Table S3, counterscreen, negative = inhibition
[15] = qHTS primary screen hits, Table S2, negative sign = inhibitory curve, several classes where COUNT > 1
[16] = scrambled-peptide counterscreen

SMILES: CC1=NN(c2ccc(C)c(C)c2)C(=O)/C1=N/Nc1cccc(-c2cccc(C(=O)O)c2)c1O [NCGC00274067-01]
- Efficacy (%) (confirmatory screen) ([1]; confirmatory screen): -83%
- Confirm? (confirmatory screen) ([1]; confirmatory screen, YES/NO): YES
- Curve Class (confirmatory screen) [1, 3]: -2.2
- IC50 [1, 4]: 22.4 µM
- Efficacy (%) [1, 5]: -69%
- IC50 [1, 6]: 44.7 µM
- Efficacy (%) (counterscreen) ([2]; counterscreen): -37%
- Curve Class (counterscreen) [2, 7]: -1.2
- IC50 ([2]; counterscreen): 35.5 µM

SMILES: CNc1oc(-c2c[nH]c3ccccc23)nc1C#N.O=C(O)C(F)(F)F [NCGC00262511-01]
- Confirm? (confirmatory screen) ([1]; Table S3, confirmatory screen, YES/NO call): YES
- Curve Class (confirmatory screen) [1, 8]: -3
- Efficacy (%) (confirmatory screen) [1, 9]: -55%
- IC50 ([1]; Table S3, confirmatory screen, read-out: IC50 [μM] (confirmatory screen)): 35.5 µM
- Efficacy (%) [1, 10]: -19%
- Curve Class [1, 11]: -1.4
- IC50 [1, 12]: 15.8 µM
- Curve Class (counterscreen) [2, 13]: -2.4
- Efficacy (%) (counterscreen) [2, 14]: -53%
- IC50 ([2]; Table S3, counterscreen): 28.2 µM

SMILES: C=C1C(OC(=O)/C(C)=C\C)[C@@]23CCC4[C@@](C)(CCC[C@@]4(C)C(=O)O)C2CC[C@H]1C3OC(C)=O (stereo partly drawn) [NCGC00381205-01]
- Efficacy (%) (confirmatory screen) ([1]; confirmatory screen): -71%
- Confirm? (confirmatory screen) ([1]; confirmatory screen, YES/NO): YES
- Curve Class (confirmatory screen) [1, 3]: -2.2
- IC50 [1, 4]: 31.6 µM
- Efficacy (%) [1, 5]: -30%
- Curve Class ([1]; qHTS FP screen hits, Table S2, one class per curve where COUNT > 1, negative sign = inhibitory curve): -2.2
- IC50 [1, 6]: 20 µM
- Efficacy (%) (counterscreen) ([2]; counterscreen): -31%
- Curve Class (counterscreen) [2, 7]: -1.4
- IC50 ([2]; counterscreen): 8.9 µM

SMILES: O=C(O)C(F)(F)F.O=C(O)c1ccc(O)c2ncc(-c3n[nH]nc3-c3ccccc3)cc12 [NCGC00241764-01]
- Efficacy (%) (confirmatory screen) ([1]; confirmatory screen): -23%
- Confirm? (confirmatory screen) ([1]; confirmatory screen, YES/NO): YES
- Curve Class (confirmatory screen) [1, 3]: -1.4
- IC50 [1, 4]: 39.8 µM
- Efficacy (%) [1, 5]: -21%
- IC50 [1, 6]: 28.2 µM
- Efficacy (%) (counterscreen) ([2]; counterscreen): -33%
- Confirm? (counterscreen) ([2]; counterscreen, YES/NO): YES
- Curve Class (counterscreen) [2, 7]: 4

SMILES: O=C(O)C(F)(F)F.O=C1Nc2ccccc2/C1=N/NC(=S)Nc1ccccc1 [NCGC00229542-01]
- Efficacy (%) (confirmatory screen) ([1]; confirmatory screen): -50%
- Confirm? (confirmatory screen) ([1]; confirmatory screen, YES/NO): YES
- Curve Class (confirmatory screen) [1, 3]: -1.4
- IC50 [1, 4]: 3.2 µM
- Efficacy (%) [1, 10]: -27%
- Curve Class [1, 15]: -1.4
- IC50 [1, 12]: 10 µM
- Efficacy (%) (counterscreen) ([2]; counterscreen): -34%
- Curve Class (counterscreen) [2, 7]: -1.2
- IC50 ([2]; counterscreen): 4.5 µM

SMILES: CCc1ccc(NC(=O)C(=O)NNC(=O)c2cccs2)cc1.O=C(O)C(F)(F)F [NCGC00244112-01]
- Curve Class (confirmatory screen) [1, 8]: 4
- Efficacy (%) (confirmatory screen) [1, 9]: 0%
- Efficacy (%) [1, 10]: -22%
- Curve Class [1, 11]: -1.4
- IC50 [1, 12]: 3.2 µM
- Efficacy (%) (counterscreen) [2, 14]: 71%
- IC50 ([2]; Table S3, counterscreen): 89.1 µM

SMILES: OCc1ccc(-c2ccc(-c3ccc(CO)s3)o2)s1 [NCGC00159570-01]
- Curve Class (confirmatory screen) [1, 8]: 2.4
- Efficacy (%) (confirmatory screen) [1, 9]: 58%
- Efficacy (%) [1, 10]: -57%
- Curve Class [1, 15]: -3
- IC50 [1, 12]: 34.1 µM
- Efficacy (%) (counterscreen) [2, 14]: 97%
- IC50 ([2]; Table S3, counterscreen): 50.1 µM

SMILES: CC(C)(C)OC(=O)CC(=O)NNC(=O)c1nc2ccccc2[nH]1 [NCGC00181234-01]
- CONFIRMATORY SCREEN Efficacy (%) ([1]; confirmatory screen): -10%
- CONFIRMATORY SCREEN Curve Class ([1]; confirmatory screen): 4
- Efficacy (%) [1, 10]: -37%
- Curve Class [1, 11]: -2.4
- IC50 [1, 12]: 39.8 µM
- COUNTERSCREEN Efficacy (%) ([2]; counterscreen): -21%
- COUNTERSCREEN Curve Class ([2]; counterscreen): 4

SMILES: O=C(NNC(=O)c1nc2ccccc2[nH]1)OCc1ccccc1 [NCGC00181216-01]
- Curve Class (confirmatory screen) [1, 8]: 4
- Efficacy (%) (confirmatory screen) [1, 9]: -25%
- Efficacy (%) [1, 10]: -24%
- Curve Class [1, 15]: -2.4
- IC50 [1, 12]: 22.4 µM
- Curve Class (counterscreen) [2, 13]: 4
- Efficacy (%) (counterscreen) [2, 14]: -28%

SMILES: O=C(O)C(F)(F)F.O=C(O)c1csc(-n2nc(-c3ccc(F)c(F)c3)c3cccc(O)c32)n1 [NCGC00356386-01]
- CONFIRMATORY SCREEN Efficacy (%) ([1]; confirmatory screen): -21%
- CONFIRMATORY SCREEN Curve Class ([1]; confirmatory screen): 4
- Efficacy (%) [1, 5]: -22%
- IC50 [1, 6]: 3.2 µM
- COUNTERSCREEN Efficacy (%) ([2]; counterscreen): 0%
- COUNTERSCREEN Curve Class ([2]; counterscreen): 4

SMILES: Cl.O=S(=O)(Nc1nccs1)c1ccc(NCc2cc(Cl)cc(Br)c2O)cc1 [NCGC00273965-01]
- CONFIRMATORY SCREEN Efficacy (%) ([1]; confirmatory screen): -19%
- CONFIRMATORY SCREEN Curve Class ([1]; confirmatory screen): 4
- Efficacy (%) [1, 10]: -33%
- Curve Class [1, 15]: -1.4
- IC50 [1, 12]: 11.2 µM
- COUNTERSCREEN Efficacy (%) ([2]; counterscreen): 0%
- COUNTERSCREEN Curve Class ([2]; counterscreen): 4

SMILES: COc1cc(C=C2C(=O)Nc3ccccc32)cc(OC)c1O [NCGC00343740-01]
- Efficacy (%) (confirmatory screen) ([1]; confirmatory screen): -81%
- Confirm? (confirmatory screen) ([1]; confirmatory screen, YES/NO): YES
- Curve Class (confirmatory screen) [1, 3]: -2.2
- Efficacy (%) [1, 10]: -53%
- Curve Class [1, 15]: -2.2
- IC50 [1, 12]: 44.7 µM
- Efficacy (%) (counterscreen) ([2]; counterscreen): -44%
- Curve Class (counterscreen) [2, 7]: -2.4
- IC50 ([2]; counterscreen): 44.7 µM

SMILES: CN(C)CCCNC(=O)c1ccc(-c2cc(O)c3ncccc3c2)cc1 [NCGC00183808-06]
- Curve Class (confirmatory screen) [1, 8]: 4
- Efficacy (%) (confirmatory screen) [1, 9]: 0%
- Confirm? (counterscreen) ([2]; Table S3, counterscreen, YES/NO call): YES
- Curve Class (counterscreen) [2, 13]: -2.4
- Efficacy (%) (counterscreen) [2, 14]: -38%
- IC50 ([2]; Table S3, counterscreen): 70.8 µM

SMILES: CN1CCC(N(Cc2cccs2)c2ccccc2)CC1 [NCGC00183847-01]
- CONFIRMATORY SCREEN Efficacy (%) ([1]; confirmatory screen): 0%
- CONFIRMATORY SCREEN Curve Class ([1]; confirmatory screen): 4
- Efficacy (%) [1, 10]: -43%
- Curve Class [1, 15]: -2.4
- IC50 [1, 12]: 39.8 µM
- COUNTERSCREEN Efficacy (%) ([2]; counterscreen): -12%
- COUNTERSCREEN Curve Class ([2]; counterscreen): 4

SMILES: CCCC1CCN(C(=O)COC(=O)c2ccc(S(C)(=O)=O)c([N+](=O)[O-])c2)CC1 [NCGC00188533-01]
- CONFIRMATORY SCREEN Confirm? ([1]; confirmatory screen, YES/NO call): YES
- CONFIRMATORY SCREEN Curve Class [1, 3]: -1.4
- CONFIRMATORY SCREEN Efficacy (%) ([1]; confirmatory screen, negative = inhibition): -28%
- IC50 ([1]; confirmatory screen, read-out: CONFIRMATORY SCREEN IC50): 2.5 µM
- Efficacy (%) [1, 5]: -25%
- IC50 [1, 6]: 1.3 µM
- COUNTERSCREEN Efficacy (%) [2, 16]: -28%
- COUNTERSCREEN Confirm? ([2]; scrambled-peptide counterscreen, YES/NO call): YES
- COUNTERSCREEN Curve Class [2, 16]: 4

SMILES: CO[C@@]12[C@H](COC(N)=O)C3=C(C(=O)C(C)=C(N)C3=O)N1C[C@@H]1N[C@@H]12 [NCGC00163468-05]
- Curve Class (confirmatory screen) [1, 8]: 4
- Efficacy (%) (confirmatory screen) [1, 9]: -31%
- Efficacy (%) [1, 10]: -38%
- Curve Class [1, 15]: -1.2
- IC50 [1, 12]: 25.1 µM
- Curve Class (counterscreen) [2, 13]: 3
- Efficacy (%) (counterscreen) [2, 14]: 95%
- IC50 ([2]; Table S3, counterscreen): 39.8 µM

SMILES: CS(=O)(=O)c1ccc(C(=O)OCC(=O)N2CCC(Cc3ccccc3)CC2)cc1[N+](=O)[O-] [NCGC00188541-01]
- CONFIRMATORY SCREEN Efficacy (%) ([1]; confirmatory screen): -18%
- CONFIRMATORY SCREEN Curve Class ([1]; confirmatory screen): 4
- Efficacy (%) [1, 5]: -25%
- IC50 [1, 6]: 0.7 µM
- COUNTERSCREEN Efficacy (%) ([2]; counterscreen): -22%
- COUNTERSCREEN Curve Class ([2]; counterscreen): 4

SMILES: CN(C)c1cnc2c(O)cccc2c1.O=C(O)C(F)(F)F [NCGC00188745-01]
- CONFIRMATORY SCREEN Efficacy (%) ([1]; confirmatory screen): -19%
- CONFIRMATORY SCREEN Curve Class ([1]; confirmatory screen): 4
- Efficacy (%) [1, 10]: -53%
- Curve Class [1, 15]: -2.2
- IC50 [1, 12]: 44.7 µM
- COUNTERSCREEN Efficacy (%) ([2]; counterscreen): -32%
- COUNTERSCREEN Curve Class ([2]; counterscreen): 4

Source: publication PMC11249646, “Small-Molecule Disruptors of the Interaction between Calcium- and Integrin-Binding Protein 1 and Integrin αIIbβ3 as Novel Antiplatelet Agents” (ACS Pharmacology & Translational Science, 2024)
